The record followed here is publication PMC8073005, “Antifungal Activity and DNA Topoisomerase Inhibition of Hydrolysable Tannins from Punica granatum L” (International Journal of Molecular Sciences, 2021).

For assay [1], the system named is Botrytis cinerea B2. Kind of assay: MIC, micro-spectrophotometric growth assay (phytopathogens). It is filed as cell-based. Conditions: for MIC: Botrytis cinerea B2, PDB, 24 °C, dark, imazalil at label dose, read-out: Minimum inhibitory concentration (MIC).
In assay [2] the test system is Coniella granati M0_C2. Described as above. The class given is cell-based. As to conditions: for growth reduction: C. granati, 48 h of incubation; for MIC: Coniella granati M0_C2, PDB, 24 °C, dark, imazalil at label dose, read-out: Minimum inhibitory concentration (MIC).
Assay [3] deals with Candida albicans ATCC 10321. Kind of assay: MIC, broth microdilution (human pathogens). Conditions: ATCC10321; Candida albicans ATCC 10321; SDB, 30 °C, 48 h; read-out: Minimum inhibitory concentration (MIC). It is filed as cell-based. For orientation: Broth dilution looks for growth in wells or tubes with falling amounts of substance.
Assay [4] relates to Candida albicans 40. The assay can be described thus: MIC, broth microdilution (human pathogens). The class given is cell-based. Conditions: Candida albicans 40; SDB, 30 °C, 48 h; read-out: Minimum inhibitory concentration (MIC).
The subject of assay [5] is Candida parapsilosis. The assay can be described thus: MIC, broth microdilution (human pathogens). As to conditions: Lodderomyces parapsilosis; Candida parapsilosis; SDB, 30 °C, 48 h; read-out: Minimum inhibitory concentration (MIC). It is filed as cell-based.
Assay [6] deals with Aspergillus brasiliensis ATCC 16404. The assay can be described thus: MIC, broth microdilution (human pathogens). The class given is cell-based. Conditions: ATCC16404; Aspergillus brasiliensis ATCC 16404; SDB, 30 °C, 48 h; read-out: Minimum inhibitory concentration (MIC).
The subject of assay [7] is Cryptococcus neoformans B 3501. Kind of assay: MIC, broth microdilution (human pathogens). The class given is cell-based. As to conditions: B3501; Cryptococcus neoformans B 3501; SDB, 30 °C, 48 h; read-out: Minimum inhibitory concentration (MIC).
Assay [8] deals with Cryptococcus var. grubii H99 serotype A. Kind of assay: MIC, broth microdilution (human pathogens). The class given is cell-based. Conditions: Cryptococcus var. grubii H99 serotype A; SDB, 30 °C, 48 h; read-out: Minimum inhibitory concentration (MIC).
Assay [9] deals with Candida albicans SC 5314. The assay can be described thus: Time-kill curves. It is filed as cell-based. As to conditions: C. albicans SC 5314; compound at its MIC value; 0–96 h.
In assay [10] the test system is C. albicans 1 (clinically isolated strain). The assay can be described thus: Time-kill curves. It is filed as cell-based, Candida albicans. Conditions: compound at its MIC value, 0–96 h.

≈ marks a conversion by molar mass, not a printed value. Where “and” joins values, the source holds several entries; their conditions need not be identical. Equal values may be shown once.

On to `O=c1oc2c(O)c(O)cc3c(=O)oc4c(O)c(O)cc1c4c23` [Ellagic Acid, ellagic acid], for which, in assay [1] (B. cinerea, Figure S3), the “antifungal activity (growth curve)” value is “no or little antifungal activity”. Also, the MIC in assay [1] is 165.4 µM and 165 µM; in assay [2], 165.4 µM and 165 µM; in assay [3], 2.5 µM (≈ 0.755 µg/mL); in assay [4] it was 331 µM (≈ 100 µg/mL); in assay [5], 662 µM (≈ 200 µg/mL); in assay [6] it was 662 µM (≈ 200 µg/mL). For the same compound, the MIC in assay [7] was determined as 331 µM (≈ 100 µg/mL); in [8] it was 662 µM (≈ 200 µg/mL). Besides, the growth reduction entry in [2] is reported as “up to 60%”. Also, the figures for the “time-kill curve (susceptibility time-course)” value in assay [9] and in assay [10] were “better antifungal activity against the reference C. albicans strain after 72 h of exposure” and “lowest activity compared with the other compounds”, respectively.
As for `O=C1OC[C@H]2OC(O)[C@H](O)[C@@H](O)[C@@H]2OC(=O)c2cc(O)c(O)c(O)c2-c2c(O)c(O)c3oc(=O)c4c(c(O)c(O)c5oc(=O)c2c3c54)-c2c1cc(O)c(O)c2O` (mixture of isomers) [Punicalin, punicalin], the MIC in assay [1] was 255.6 µM and 256 µM; in assay [2], 255.6 µM and 256 µM; in assay [3], 127 µM; in [4], 127 µM; in assay [5] it was 127 µM; in assay [6], 1.9 µM. The MIC in [7] came out at 1.9 µM; in assay [8] it was 127 µM. Besides, in [2], the growth reduction result is recorded as “up to 92%”. Further, in [10], the “time-kill curve (susceptibility time-course)” value was “after 60 h of incubation, punicalin becomes less effective than punicalagin”.
